From patent US9597407B2, “Targeted antimicrobial moieties” (C3 Jian, Inc., priority 2009, dated 2017)

System: microorganisms
Assay: Morphology, biofilm and growth disruption by peptides (Table 5)
Format: cell-based
Design: key: A: Peptide aggregates; B: Less hyphal formation; Clumps; Diffuse clumps and small polyps; F: Diffuse growth; H: Thin; I: Growth inhibition; Microcolony formation; Rippled; Small polyps; Thick; W: Halo formation on top, microlonies on bottom
Source text: In certain embodiments peptides that induce alterations in phenotype or other biological activities can also be used as antimicrobial effector moieties.

Substance: PF-145 (GIVLTGRAGLVSGACSMALGVGLG; Peptide with targeting and/or antimicrobial activity)
- Organism, effect (B. subtilis): B. subtilis (C)
- Organism, effect (C. jeikeium): C. jeikeium (R)
- Organism, effect (C. jejuni): C. jejuni (R)
- Organism, effect (M. luteus): M. luteus (A)
- Organism, effect (MRSA): MRSA (M)
- Organism, effect (S. epidermidis): S. epidermidis (D)
- Organism, effect (S. pneumoniae): S. pneumoniae (R)

Substance: PF-605 (HYRWNTQWWKY; Peptide with targeting and/or antimicrobial activity)
- Organism, effect (morphology, biofilm and growth disruption) (C. albicans): C. albicans (B)
- Organism, effect (morphology, biofilm and growth disruption) (C. jejuni): C. jejuni (R)
- Organism, effect (morphology, biofilm and growth disruption) (E. coli): E. coli (C)
- Organism, effect (morphology, biofilm and growth disruption) (E. faecalis): E. faecalis (R)
- Organism, effect (morphology, biofilm and growth disruption) (MRSA): MRSA (C)
- Organism, effect (morphology, biofilm and growth disruption) (P. aeruginosa): P. aeruginosa (A)
- Organism, effect (morphology, biofilm and growth disruption) (S. epidermidis): S. epidermidis (R)
- Organism, effect (morphology, biofilm and growth disruption) (S. pneumoniae): S. pneumoniae (D)

Substance: PF-196 (TTARYIRRQCHTSITPLSQG; Peptide with targeting and/or antimicrobial activity)
- Organism, effect (C. jeikeium): C. jeikeium (R)
- Organism, effect (S. epidermidis): S. epidermidis (C)

Substance: GIVLIGLKLIPLLANVLR [PF-322]
- Organism, effect (B. subtilis): B. subtilis (H)
- Organism, effect (S. epidermidis): S. epidermidis (C)

Substance: PF-612 (GTTLKYGLERQLKIDIHPEITIINLNGGADEFAKL; Peptide with targeting and/or antimicrobial activity)
- Organism, effect (morphology, biofilm and growth disruption) (E. coli): E. coli (C)
- Organism, effect (morphology, biofilm and growth disruption) (M. luteus): M. luteus (A)
- Organism, effect (morphology, biofilm and growth disruption) (MRSA): MRSA (C)
- Organism, effect (morphology, biofilm and growth disruption) (P. mirabilis): P. mirabilis (C)
- Organism, effect (morphology, biofilm and growth disruption) (S. epidermidis): S. epidermidis (C)
- Organism, effect (morphology, biofilm and growth disruption) (S. mutans): S. mutans (F)
- Organism, effect (morphology, biofilm and growth disruption) (S. pneumoniae): S. pneumoniae (C)

Substance: PF-535 (NIKTRKRALKIIKQHQRSK; Peptide with targeting and/or antimicrobial activity)
- Organism, effect (morphology, biofilm and growth disruption) (P. aeruginosa): P. aeruginosa (H)
- Organism, effect (morphology, biofilm and growth disruption) (S. pneumoniae): S. pneumoniae (H)

Substance: MIHLTKQNTMEALHFIKQFYDMFFILNFNV [PF-040]
- Organism, effect (B. subtilis): B. subtilis (D)
- Organism, effect (C. jeikeium): C. jeikeium (D)
- Organism, effect (C. jejuni): C. jejuni (D)
- Organism, effect (E. coli): E. coli (C)
- Organism, effect (M. luteus): M. luteus (D)
- Organism, effect (MRSA): MRSA (D)
- Organism, effect (P. mirabilis): P. mirabilis (C)
- Organism, effect (S. epidermidis): S. epidermidis (D)
- Organism, effect (S. mutans): S. mutans (F)
- Organism, effect (S. pneumoniae): S. pneumoniae (D)

Substance: PF-561 (ESLEADVQAELDTEAAKYPALPASF; Peptide with targeting and/or antimicrobial activity)
- Organism, effect (morphology, biofilm and growth disruption) (B. subtilis): B. subtilis (D)
- Organism, effect (morphology, biofilm and growth disruption) (MRSA): MRSA (M)

Substance: KFSDQIDKGQDALKDKLGDL [PF-525]
- Organism, effect (morphology, biofilm and growth disruption) (S. pneumoniae): S. pneumoniae (H)

Substance: PF-592 (IMKNYKYFKLFIVKYALF; Peptide with targeting and/or antimicrobial activity)
- Organism, effect (morphology, biofilm and growth disruption) (C. jejuni): C. jejuni (S)
- Organism, effect (morphology, biofilm and growth disruption) (E. coli): E. coli (C)
- Organism, effect (morphology, biofilm and growth disruption) (E. faecalis): E. faecalis (D)
- Organism, effect (morphology, biofilm and growth disruption) (MRSA): MRSA (D)
- Organism, effect (morphology, biofilm and growth disruption) (S. epidermidis): S. epidermidis (M)
- Organism, effect (morphology, biofilm and growth disruption) (S. pneumoniae): S. pneumoniae (D)

Substance: SKFKVLRKIIIKEYKGELMLSIQKQR [PF-530]
- Organism, effect (morphology, biofilm and growth disruption) (E. coli): E. coli (R)
- Organism, effect (morphology, biofilm and growth disruption) (E. faecalis): E. faecalis (C)
- Organism, effect (morphology, biofilm and growth disruption) (MRSA): MRSA (C)
- Organism, effect (morphology, biofilm and growth disruption) (S. epidermidis): S. epidermidis (H)
- Organism, effect (morphology, biofilm and growth disruption) (S. pneumoniae): S. pneumoniae (R)
